Results: patent US11725037B2, “Peptide dual agonists of GIPR and GLP2R” (University of Copenhagen, priority 2017, dated 2023)
Where two headings read alike, the source gives them in different places. Ends that are not written are not given here.

Legend:
[1] = target: T1, human GIP receptor (Homo sapiens, UniProt P48546); assay: cAMP accumulation assay (HitHunter cAMP XS) in transiently transfected COS-7 cells expressing the human GIP receptor; type: cell-based; details: for Emax at 10 µM: COS-7, read-out: Emax (10 μM), GIP receptor; for fold (fold change of native GIP), GIP receptor: EC50 relative to native GIP; for Emax at 1 µM: COS-7, read-out: Emax, GIP receptor
T1 construct: host or cells: COS-7 (transient, calcium phosphate; pCMV-Script vector)
T1 sequence (P48546 22-466): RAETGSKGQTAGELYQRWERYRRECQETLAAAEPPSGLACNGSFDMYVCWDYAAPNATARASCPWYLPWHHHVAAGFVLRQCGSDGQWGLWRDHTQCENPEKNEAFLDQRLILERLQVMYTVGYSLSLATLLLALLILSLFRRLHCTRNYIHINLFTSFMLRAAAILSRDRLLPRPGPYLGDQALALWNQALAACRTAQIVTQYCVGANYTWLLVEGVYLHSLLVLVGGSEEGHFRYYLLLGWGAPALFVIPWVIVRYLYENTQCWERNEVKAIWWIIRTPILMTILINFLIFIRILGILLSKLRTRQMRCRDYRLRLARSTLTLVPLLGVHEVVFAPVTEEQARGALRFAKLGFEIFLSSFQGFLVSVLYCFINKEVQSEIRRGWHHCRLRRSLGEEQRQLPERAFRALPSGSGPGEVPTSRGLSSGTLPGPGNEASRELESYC
Procedure: (§1) The day after, the cells were washed twice with Hepes buffered saline (HBS) buffer and incubated with HBS and 1 mM 3-isobutyl-1-methylxanthine (IBMX) for 30 min at 37° C. Ligands were added and incubated for 30 min at 37° C. The HitHunter™ cAMP XS assay (DiscoveRx) was carried out according to the manufacturer's instructions.

[2] = target: T2, human GLP-2 receptor (Homo sapiens, UniProt O95838); assay: cAMP accumulation assay (HitHunter cAMP XS) in transiently transfected COS-7 cells expressing the human GLP-2 receptor; type: cell-based; details: for Emax at 10 µM: COS-7, read-out: Emax (10 μM), GLP-2 receptor; for fold (fold change of native GLP-2), GLP-2 receptor: EC50 relative to native GLP-2; for EC50: logEC50, GLP-2 receptor, cAMP, COS-7; for Emax at 1 µM: COS-7, read-out: Emax, GLP-2 receptor
T2 construct: host or cells: COS-7 (transient, calcium phosphate; pCMV-Script vector)
T2 sequence (O95838 1-553): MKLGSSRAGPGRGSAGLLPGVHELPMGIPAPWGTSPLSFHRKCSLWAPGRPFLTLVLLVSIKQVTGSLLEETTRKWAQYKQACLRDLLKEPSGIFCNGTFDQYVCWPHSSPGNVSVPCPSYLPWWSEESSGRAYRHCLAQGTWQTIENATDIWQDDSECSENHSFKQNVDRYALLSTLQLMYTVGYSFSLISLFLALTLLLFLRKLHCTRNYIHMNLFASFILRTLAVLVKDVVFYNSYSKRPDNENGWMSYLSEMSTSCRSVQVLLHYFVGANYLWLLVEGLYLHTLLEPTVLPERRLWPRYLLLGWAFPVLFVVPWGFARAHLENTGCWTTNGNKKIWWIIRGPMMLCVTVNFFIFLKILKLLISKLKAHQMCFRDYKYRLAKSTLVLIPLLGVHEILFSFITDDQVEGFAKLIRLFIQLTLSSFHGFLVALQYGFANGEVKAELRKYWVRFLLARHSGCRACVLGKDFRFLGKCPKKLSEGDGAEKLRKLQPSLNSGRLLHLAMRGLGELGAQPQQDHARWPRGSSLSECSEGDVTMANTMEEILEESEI
Procedure: as §1

[3] = logEC50, GIP receptor, Table 1, log value, cAMP, COS-7
[4] = logEC50, GIP receptor, Table 2, log value, cAMP, COS-7

Compound | Emax at 10 µM [1] [%] | fold (fold change of native GIP), GIP receptor ([1]; Table 1) [fold] | Emax at 10 µM [2] [%] | fold (fold change of native GLP-2), GLP-2 receptor ([2]; Table 1) [fold] | also measured
HAEGTFISDMNTILDNLAARDFINWLIQTKITD [Co-agonist 6] | 83 | 1933 | 70 | 50 | –
HADGTFSSDYSTILDNLAARDFINWLIQTKITD [Co-agonist 13] | 91 | 135 | 99 | 9.2 | EC50 [1, 3]: 12 nM; EC50 ([2]; Table 1): 11.2 nM
CCCCCCCCCCCCCCCC(=O)N[C@@H](Cc1c[nH]cn1)C(=O)N[C@@H](C)C(=O)N[C@@H](CC(=O)O)C(=O)NCC(=O)N[C@H](C(=O)N[C@@H](Cc1ccccc1)C(=O)N[C@H](C(=O)N[C@@H](CO)C(=O)N[C@@H](CC(=O)O)C(=O)N[C@@H](Cc1ccc(O)cc1)C(=O)N[C@@H](CO)C(=O)N[C@H](C(=O)N[C@H](C(=O)N[C@@H](CC(C)C)C(=O)N[C@@H](CC(=O)O)C(=O)N[C@@H](CC(N)=O)C(=O)N[C@@H](CC(C)C)C(=O)N[C@@H](C)C(=O)N[C@@H](C)C(=O)N[C@@H](CCCNC(=N)N)C(=O)N[C@@H](CC(=O)O)C(=O)N[C@@H](Cc1ccccc1)C(=O)N[C@H](C(=O)N[C@@H](CC(N)=O)C(=O)N[C@@H](Cc1c[nH]c2ccccc12)C(=O)N[C@@H](CC(C)C)C(=O)N[C@H](C(=O)N[C@@H](CCC(N)=O)C(=O)N[C@H](C(=O)N[C@@H](CCCCN)C(=O)N[C@H](C(=O)N[C@H](C(=O)N[C@@H](CCCCN)C(=O)O)[C@@H](C)O)[C@@H](C)CC)[C@@H](C)O)[C@@H](C)CC)[C@@H](C)CC)[C@@H](C)CC)[C@@H](C)O)[C@@H](C)CC)[C@@H](C)O [Co-agonist 29] | 115 | – | 82 | – | EC50 ([1]; EC50(nM), GIP receptor, Table 2, cAMP, COS-7): 1.82 nM; EC50 [1, 4]: 1.82 nM; EC50 ([2]; Table 2): 17.4 nM
CC[C@H](C)[C@H](NC(=O)[C@H](Cc1ccccc1)NC(=O)[C@H](CC(=O)O)NC(=O)[C@H](CCCNC(=N)N)NC(=O)[C@H](C)NC(=O)[C@H](C)NC(=O)[C@H](CC(C)C)NC(=O)[C@H](CC(N)=O)NC(=O)[C@H](CC(=O)O)NC(=O)[C@H](CC(C)C)NC(=O)[C@@H](NC(=O)[C@@H](NC(=O)[C@H](CO)NC(=O)[C@H](Cc1ccc(O)cc1)NC(=O)[C@H](CC(=O)O)NC(=O)[C@H](CO)NC(=O)[C@@H](NC(=O)[C@H](Cc1ccccc1)NC(=O)[C@@H](NC(=O)CNC(=O)[C@H](CC(=O)O)NC(=O)[C@H](C)NC(=O)[C@@H](N)Cc1c[nH]cn1)[C@@H](C)O)[C@@H](C)CC)[C@@H](C)O)[C@@H](C)CC)C(=O)N[C@@H](CC(N)=O)C(=O)N[C@@H](Cc1c[nH]c2ccccc12)C(=O)N[C@@H](CC(C)C)C(=O)N[C@H](C(=O)N[C@@H](CCC(N)=O)C(=O)N[C@H](C(=O)N[C@@H](CCCCN)C(=O)N[C@H](C(=O)N[C@H](C(=O)N[C@@H](CCCCN)C(=O)O)[C@@H](C)O)[C@@H](C)CC)[C@@H](C)O)[C@@H](C)CC [Co-agonist 18] | 89 | 7.4 | 94 | 4.4 | potency (and efficacy) on the GIP receptor compared with native GIP, in words ([1]; Table 1): almost the same potency and efficacy; potency and efficacy on the GLP-2R compared with native GLP-2, in words ([2]; Table 1): almost the same potency and efficacy
HADGTFSSDYSTILDNLAAKDFINWLIQTKITD [Co-agonist 20] | 98 | – | 80 | – | –
HADGTFIDDYSTILDNLAARDFINWLIQTKITD [Co-agonist 14] | 94 | 27 | 90 | 9.2 | EC50 [1, 3]: 2.34 nM; EC50 ([2]; Table 1): 10.7 nM
HADGTFISDYSTILDNLKARDFINWLIQTKITK [Co-agonist 27] | 100 | – | 100 | – | fold (fold change of native GIP), GIP receptor ([1]; Table 2): 6.2 fold; fold (fold change of native GLP-2), GLP-2 receptor ([2]; Table 2): 0.47 fold
HAEGTFISDYSTILDNLAARDFINWLIQTKITDNDWKHNITQ [Co-agonist 2] | – | 135 | – | 121 | EC50 [1]: 12 nM; Emax at 1 µM [1]: 100%; Emax at 1 µM [2]: 93%
CC[C@H](C)[C@H](NC(=O)[C@H](Cc1ccccc1)NC(=O)[C@H](CC(=O)O)NC(=O)[C@H](CCCCN)NC(=O)[C@H](C)NC(=O)[C@H](C)NC(=O)[C@H](CC(C)C)NC(=O)[C@H](CC(N)=O)NC(=O)[C@H](CC(=O)O)NC(=O)[C@H](CC(C)C)NC(=O)[C@@H](NC(=O)[C@@H](NC(=O)[C@H](CO)NC(=O)[C@H](Cc1ccc(O)cc1)NC(=O)[C@H](CC(=O)O)NC(=O)[C@H](CO)NC(=O)[C@@H](NC(=O)[C@H](Cc1ccccc1)NC(=O)[C@@H](NC(=O)CNC(=O)[C@H](CC(=O)O)NC(=O)[C@H](C)NC(=O)[C@@H](N)Cc1c[nH]cn1)[C@@H](C)O)[C@@H](C)CC)[C@@H](C)O)[C@@H](C)CC)C(=O)N[C@@H](CC(N)=O)C(=O)N[C@@H](Cc1c[nH]c2ccccc12)C(=O)N[C@@H](CC(C)C)C(=O)N[C@H](C(=O)N[C@@H](CCC(N)=O)C(=O)N[C@H](C(=O)N[C@@H](CCCCN)C(=O)N[C@H](C(=O)N[C@H](C(=O)N[C@@H](CCCCN)C(=O)O)[C@@H](C)O)[C@@H](C)CC)[C@@H](C)O)[C@@H](C)CC [Co-agonist 28] | 100 | – | 112 | – | EC50 [1, 4]: 0.2 nM
CCCCCCCCCCCC(=O)NCCCC[C@H](NC(=O)[C@@H](NC(=O)[C@H](CCC(N)=O)NC(=O)[C@@H](NC(=O)[C@H](CC(C)C)NC(=O)[C@H](Cc1c[nH]c2ccccc12)NC(=O)[C@H](CC(N)=O)NC(=O)[C@@H](NC(=O)[C@H](Cc1ccccc1)NC(=O)[C@H](CC(=O)O)NC(=O)[C@H](CCCNC(=N)N)NC(=O)[C@H](C)NC(=O)[C@H](C)NC(=O)[C@H](CC(C)C)NC(=O)[C@H](CC(N)=O)NC(=O)[C@H](CC(=O)O)NC(=O)[C@H](CC(C)C)NC(=O)[C@@H](NC(=O)[C@@H](NC(=O)[C@H](CO)NC(=O)[C@H](Cc1ccc(O)cc1)NC(=O)[C@H](CC(=O)O)NC(=O)[C@H](CO)NC(=O)[C@@H](NC(=O)[C@H](Cc1ccccc1)NC(=O)[C@@H](NC(=O)CNC(=O)[C@H](CC(=O)O)NC(=O)[C@H](C)NC(=O)[C@@H](N)Cc1c[nH]cn1)[C@@H](C)O)[C@@H](C)CC)[C@@H](C)O)[C@@H](C)CC)[C@@H](C)CC)[C@@H](C)CC)[C@@H](C)O)C(=O)N[C@H](C(=O)N[C@H](C(=O)N[C@@H](CCCCN)C(=O)O)[C@@H](C)O)[C@@H](C)CC [Co-agonist 30] | 100 | – | 73 | – | fold (fold change of native GIP), GIP receptor ([1]; Table 2): 7.1 fold; fold (fold change of native GLP-2), GLP-2 receptor ([2]; Table 2): 30 fold; EC50 ([2]; Table 2): 36.3 nM
HAEGTFISDYSTILDNLAARDFINWLIQTKITD [Co-agonist 1] | – | 337 | – | 82 | EC50 [1]: 29.5 nM; Emax at 1 µM [1]: 100%; Emax at 1 µM [2]: 93%
HVDGTFISDYSTILDNLAARDFINWLIQTKITD [Co-agonist 12] | 96 | 12 | 81 | 21 | EC50 [1, 3]: 1.1 nM; EC50 ([2]; Table 1): 25.1 nM
